Consider 64 compounds from a melting point compilation (Tetko et al.; mined from patent text by program, amines drawn as free bases though some values may be those of a salt).

What is called melting point is the temperature of the solid-liquid transition.

As to `CONC(=O)C(Oc1cc(OCc2ccsc2)ccc1C#N)c1ccccc1C` (racemic), the melting point fell in the range of 155 to 156 °C.

Compound `CC=CCn1c(C)c(C)c2cnnc(OCc3ccc(Cl)cc3Cl)c21` returned a melting point of 133 to 134 °C.

With `CC(C)(OCc1cc2nc(Cl)ccc2n1S(=O)(=O)c1cccc2ccccc12)C(=O)O`, the melting point turned out to be 209 °C.

As for `Oc1c(C(=Nc2ccccc2)Nc2ccccc2)sc2ccccc12`, the melting point lay in the range of 152 to 153 °C.

The compound `CCCCCCCCc1ccc(C(=O)CCCCC(=O)O)cc1` showed a melting point of 96 to 97 °C.

The compound `Cc1ccc2nc3c(nc2c1)SC(=C(C#N)C#N)S3` returned a melting point of 265 to 267 °C.

In turn, `O=C1c2ccccc2C(=O)c2sc(-c3ccc(Br)o3)nc21` displayed a melting point of over 260 °C.

Consider `CC(=O)N1CCN=C1Nc1ccnn1-c1cccc(C(F)(F)F)c1`, for which the melting point was in the range of 194 to 197 °C.

The compound `CNC(=S)C1(c2cccnc2)OCCCS1` (centres undefined) had a melting point of 194 °C.

Compound `O=C(O)c1csnc1-c1cccc(Cl)c1` yielded a melting point of 215 to 216 °C.

The compound `Cc1oc(-c2ccccc2)nc1CC=Cc1ccc(CC2SC(=O)NC2=O)cc1` (centres undefined) yielded a melting point of 55 to 57 °C.

In turn, `N#CSc1ccc(N)c(C#N)c1` gave a melting point of 120 to 121 °C.

`CN1Cc2c(-c3noc(CCl)n3)ncn2-c2ccc(F)cc2C1=O` returned a melting point of 245 to 247 °C.

For the compound `Cc1nc(N)ccc1NC(=NC#N)Oc1ccccc1`, the melting point was 189 to 190 °C.

`CCCOc1c(OCc2ccccc2)cc([C@H]2CC[C@H](c3cc(OC)c(OC)c(OC)c3)O2)cc1S(=O)(=O)CCO` (relative stereo) came in with a melting point of 112 to 113 °C.

In turn, `NC(=O)C(O)c1ccsc1` (centres undefined) returned a melting point of 114 to 120 °C.

For `Cc1ccc(-c2cc3c(s2)CCCC(C(=O)O)=C3)cc1`, the melting point was in the range of 250 to 251 °C.

Turning to `Cc1c(F)c([N+](=O)[O-])cc([N+](=O)[O-])c1F`, the melting point is 81 to 82 °C.

Compound `CNC(=O)c1ccccc1Nc1nc(Nc2ccc3c(c2)NCCNC3=O)ncc1Cl` returned a melting point of 232 to 237 °C.

For the compound `Cc1c(-n2ccnc2)[nH]c2ccccc12`, the melting point lay in the range of 156 to 158 °C.

On to `CC1(C)CC(C)(c2ccc(O)cc2)c2cc(O)ccc21` (centres undefined), for which the melting point worked out at 202 °C.

The compound `COc1cc([N+](=O)[O-])c(Br)cc1OCc1ccccc1` showed a melting point of 134 to 135 °C.

In the case of `O=C(NCCO)c1cccc(-c2cccc3oc(Cc4cccc(C(F)(F)F)c4)cc23)c1`, the melting point fell in the range of 135 to 136 °C.

Compound `CSC1=C(C#N)C(c2ccc(N(C)C)cc2)(c2cccnc2)C(=O)N1CCCN(C)C` (centres undefined) returned a melting point of 90 to 91 °C.

`Nc1nnc(-c2ccc(C(F)(F)F)cc2)n1-c1cc(Cl)ccc1O` gave a melting point of 147 to 155 °C.

Turning to `COc1c(C(C)(C)C)cc(N2CCCC2=O)cc1C(C)(C)C`, the melting point lay in the range of 90 to 91 °C.

`Cc1ccc2nc(SCC(=O)O)oc2c1` returned a melting point of 144 to 146 °C.

`COC(=O)NCCC1CN=C(c2cc3cccc(N(C)S(=O)(=O)c4cccs4)c3[nH]2)S1` (centres undefined) displayed a melting point of 201 to 203 °C.

As for `NCC#CCCCC(=O)O`, the melting point was in the range of 180 to 183 °C.

For `Cc1nc(-c2ccc(C#N)cc2)sc1C(=O)O`, the melting point was 235 to 250 °C.

Take `COC(=O)C1CCC(n2ccn(-c3ccc4c(c3)CCC(C#N)C4)c2=O)CC1` (centres undefined): the melting point was 116 to 118 °C.

Consider `CC1Cc2ccccc2C(=O)C1n1ccnc1` (centres undefined), for which the melting point was 153 to 155 °C.

`Cc1nc(C(F)(F)F)c(C(=O)Nc2ccccc2-c2cc(F)c(F)c(F)c2)s1` registered a melting point of 148 to 152 °C.

The compound `FC(F)(F)c1cc(Br)cc(OCc2ccc3ccccc3c2)c1` showed a melting point of 68 to 70 °C.

Turning to `COc1csc2ccc(C(=O)CC(=O)C3CC3)c(OC)c12`, the melting point is 77.5 to 80 °C.

For the compound `O=c1[nH]c2ncc(-c3ccc(-c4ncc[nH]4)cc3)nc2n1CCC1CCOCC1`, the melting point was in the range of 293 to 295 °C.

`OC(Cn1cncn1)(c1ccc(F)cc1F)C(F)n1cncn1` (centres undefined) yielded a melting point of 117 to 123 °C.

With `CN(C)CCCn1c(-c2ccccc2)cc2ccccc21`, the melting point worked out at 52 °C.

Regarding `COc1ccc(CC(=O)O)cc1C(=O)NCc1ccc(C(F)(F)F)cc1`, the melting point is 167 to 168 °C.

Compound `CCCCN(CC)c1nc(C)nc2c1NC(=O)CN2c1ccc(C(C)C)cc1Br` registered a melting point of 146 to 147 °C.

For `Cc1oc(-c2ccccc2)nc1COc1cccc(CSc2cccc(CC(=O)O)c2)c1`, the melting point lay in the range of 81 to 82 °C.

`CC(Cl)(Cl)C(NC(=O)c1ccc(C(F)(F)F)cc1)NC(=NS(=O)(=O)C(F)(F)F)Nc1cccnc1` (centres undefined) registered a melting point of 214 to 215 °C.

With `CC1Cc2cc(C(=O)O)ccc2C1=O` (centres undefined), the melting point is 189 to 194 °C.

For `Cc1cc(C)cc(CNc2c(NC(C)(C)C)c(=O)c2=O)c1`, the melting point fell in the range of 246 to 248 °C.

The compound `c1ccc2oc(COc3ccc(CCCn4ccnc4)cc3)nc2c1` had a melting point of 81 to 82 °C.

With `O=C(NCc1ccc([N+](=O)[O-])cc1)N(c1ccccc1)c1ccccc1`, the melting point lay within 137 to 138 °C.

In the case of `CC1=CC(c2ccccc2[N+](=O)[O-])C=C(CN2C(=O)c3ccccc3C2=O)N1` (centres undefined), the melting point was in the range of 137 to 138 °C.

On to `CC(CC(=O)NCc1ccccc1)n1c(C(F)(F)F)nc2cc(F)c(-n3c(=O)cc(C(F)(F)F)n(C)c3=O)cc21` (centres undefined), for which the melting point was 191 to 193 °C.

Compound `CC(C)(C)c1cc(NC(=O)Nc2ccc(-c3c(C(N)=O)[nH]c4ccccc34)cc2)no1` had a melting point of 176 to 178 °C.

Take `CN(C(=O)Nc1ccc2ccccc2c1)c1cccc(-c2ccc(CCC(=O)O)cc2)c1`: the melting point fell in the range of 170 to 171 °C.

`CCCc1ccc(-c2ccc(-c3ccc(O)cc3)nn2)cc1` showed a melting point of 220 to 223 °C.

As to `Cc1cc(CCCCCCCc2ccc(C#N)cc2)on1`, the melting point is 61 °C.

`CS(=O)(=O)c1ccc(Cl)cc1Cl` yielded a melting point of 71 °C.

The compound `COCN1NC(=O)N(C)C1c1ccccc1-c1ccc(CBr)cc1` (centres undefined) returned a melting point of 137 to 138 °C.

With `CCn1cc(O)c(=O)cc1CO`, the melting point is 143 to 145 °C.

Consider `CC(C)OC(=O)N[C@H]1CC[C@H](CCN2CCN(c3cccc(Cl)c3Cl)CC2)CC1`, for which the melting point lay within 128 to 131 °C.

As for `COc1ccccc1CC(=NCc1cccs1)N1C[C@@H]2C(=O)CCC(c3ccccc3)(c3ccccc3)[C@@H]2C1`, the melting point worked out at 88 °C.

The compound `CCC(Oc1ccc(C(C)(C)CC)cc1C(C)(C)CC)C(=O)Nc1cc(Cl)c2[nH]c(=O)[nH]c2c1O` (centres undefined) showed a melting point of 201 to 204 °C.

On to `C[C@@H](CO)Oc1ccc(-c2ccccc2)cc1`, for which the melting point was 75 to 78 °C.

For `COc1ccc(COC(C)(C)C(=O)Nc2c(N)n(Cc3ccc(OC)c(OC4CCCC4)c3)c(=S)[nH]c2=O)cc1`, the melting point fell in the range of 172 to 184 °C.

As for `CN1CC(N(C)[C@@H]2c3cc(C#N)ccc3OC(C)(C)[C@H]2O)=CC1=O` (relative stereo), the melting point is 266 to 269 °C.

As for `Cc1cc(Cl)ccc1Br`, the melting point fell in the range of 91 to 95 °C.

In turn, `O=C1CCCc2c1c1ccccc1n2Cc1ccccc1` gave a melting point of 157 to 158 °C.

Take `N#CCC(O)(Cn1cncn1)c1ccc(F)cc1F` (centres undefined): the melting point fell in the range of 154 to 155 °C.
